According to patent US7973033B2, “Multi-cyclic cinnamide derivatives” (Eisai R&D Management Co., Ltd., priority 2006, dated 2011):

System: Aβ 42 production
Assay: Quantification of Aβ Peptide in Culture of Neurons from Rat Fetus Brain
Assay type: cell-based
Conditions: Neuron, 72 h; rat primary neuronal culture (cerebral cortex, embryonic day 18 Wistar rats); medium collected three days after addition of the compound; Aβ ELISA; read-out: Effect of reducing Aβ 42 production IC50
Method: Quantification of Aβ Peptide in Culture of Neurons from Rat Fetus Brain
(1) Rat Primary Neuronal Culture
Primary neuronal cultures were prepared from the cerebral cortex of embryonic day 18 Wistar rats (Charles River Japan, Yokohama, Japan). Specifically, the embryos were aseptically removed from pregnant rats under ether anesthesia. The brain was isolated from the embryo and immersed in an ice-cold L-15 medium (Invitrogen Corp. Cat #11415-064, Carlsbad, Calif., USA, or SIGMA L1518, for example). The cerebral cortex was collected from the isolated brain under a stereoscopic microscope. The cerebral cortex fragments collected were enzymatically treated in an enzyme solution containing 0.25% trypsin (Invitrogen Corp. Cat #15050-065, Carlsbad, Calif., USA) and 0.01% DNase (Sigma D5025, St. Louis, Mo., USA) at 37° C. for 30 minutes to disperse the cells. Here, the enzymatic reaction was stopped by adding inactivated horse serum to the solution. The enzymatically treated solution was centrifuged at 1,500 rpm for five minutes to remove the supernatant. 5 to 10 ml of a medium was added to the resulting cell mass. Neurobasal medium (Invitrogen Corp. Cat #21103-049, Carlsbad, Calif., USA) supplemented with 2% B27 supplement (Invitrogen Corp. Cat #17504-044, Carlsbad, Calif., USA), 25 μM 2-mercaptoethanol (2-ME, WAKO Cat #139-06861, Osaka, Japan), 0.5 mM L-glutamine (Invitrogen Corp. Cat #25030-081, Carlsbad, Calif., USA), and Antibiotics-Antimycotics (Invitrogen Corp. Cat #15240-062, Carlsbad, Calif., USA) was used as the medium (Neurobasal/B27/2-ME). However, the above Neurobasal medium not supplemented with 2-ME (Neurobasal/B27) was used for the assay. The cells were redispersed by mild pipetting of the cell mass to which the medium was added. The cell dispersion was filtered through a 40-μm nylon mesh (Cell Strainer, Cat #35-2340, Becton Dickinson Labware, Franklin Lakes, N.J., USA) to remove the remaining cell mass, and thus a neuronal cell suspension was obtained. The neuronal cell suspension was diluted with the medium and then plated in a volume of 100 μl/well at an initial cell density of 5×10^5 cells/cm^2 in a 96-well polystyrene culture plate pre-coated with poly-L or D-lysine (Falcon Cat #35-3075, Becton Dickinson Labware, Franklin Lakes, N.J., USA coated with poly-L-lysine using the method shown below, or BIOCOAT™ cell environments Poly-D-lysine cell ware 96-well plate, Cat #35-6461, Becton Dickinson Labware, Franklin Lakes, N.J., USA). Poly-L-lysine coating was carried out as follows. 100 μg/ml of a poly-L-lysine (SIGMA P2636, St. Louis, Mo., USA) solution was aseptically prepared with a 0.15 M borate buffer (pH 8.5). 100 μl/well of the solution was added to the 96-well polystyrene culture plate and incubated at room temperature for one or more hours or at 4° C. overnight or longer. The coated 96-well polystyrene culture plate was washed with sterile water four or more times, and then dried or rinsed with, for example, sterile PBS or medium, and used for cell plating. The plated cells were cultured in the culture plate at 37° C. in 5% CO2-95% air for one day. Then, the total amount of the medium was replaced with a fresh Neurobasal™/B27/2-ME medium, and then the cells were cultured for further three days.
The drug was added to the culture plate on Day 4 of culture as follows. The total amount of the medium was removed from the wells, and 180 μl/well of Neurobasal medium not containing 2-ME and containing 2% B-27 (Neurobasal/B27) was added thereto. A solution of the test compound in dimethyl sulfoxide (hereinafter abbreviated as DMSO) was diluted with Neurobasal/B27 at 10-fold of the final concentration. 20 μl/well of the dilution was added to and sufficiently mixed with the medium. The final DMSO concentration was 1% or less. Only DMSO was added to the control group.
The cells were cultured for three days after addition of the compound, and the total amount of the medium was collected. […]

COc1cc(/C=C/c2nc3n(n2)CCC[C@@H]3c2ccc(OC(F)(F)F)cc2)ccc1-n1cnc(C)c1 [Example 129, (−)-2-{(E)-2-[3-methoxy-4-(4-methyl-1H-imidazol-1-yl)phenyl]vinyl}-8-(4-trifluoromethoxyphenyl)-5,6,7,8-tetrahydro[1,2,4]triazolo[1,5-a]pyridine]
IC50: 17 nM
